PubChem BioAssay (NCI)
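Dose response: 5 concentrations. Exposure: 48 h. Format: 96-well plates. Endpoint: linear interpolation; highest concentration if not reached. GI50: concentration for 50% inhibition of growth. TGI: total growth inhibition.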

Legend:
Experiment in all cases: inhibition of tumour cell growth, NCI panel, 48 h
DU-145 prostate = tested on: DU-145 prostate
HCC-2998 colon = tested on: HCC-2998 colon
HOP-92 NSCLC = tested on: HOP-92 NSCLC
HT29 colon = tested on: HT29 colon
K-562 leukemia = tested on: K-562 leukemia
M14 melanoma = tested on: M14 melanoma
NCI-H460 lung = tested on: NCI-H460 lung
NCI/ADR-RES ovarian = tested on: NCI/ADR-RES ovarian
SF-295 CNS = tested on: SF-295 CNS
UACC-62 melanoma = tested on: UACC-62 melanoma

Compound	GI50 (DU-145 prostate) [µM]	TGI (DU-145 prostate) [µM]	GI50 (HCC-2998 colon) [µM]	TGI (HCC-2998 colon) [µM]	GI50 (HOP-92 NSCLC) [µM]	TGI (HOP-92 NSCLC) [µM]	GI50 (HT29 colon) [µM]	TGI (HT29 colon) [µM]	TGI (K-562 leukemia) [µM]	GI50 (M14 melanoma) [µM]	TGI (M14 melanoma) [µM]	GI50 (NCI-H460 lung) [µM]	TGI (NCI-H460 lung) [µM]	GI50 (NCI/ADR-RES ovarian) [µM]	TGI (NCI/ADR-RES ovarian) [µM]	GI50 (SF-295 CNS) [µM]	TGI (SF-295 CNS) [µM]	GI50 (UACC-62 melanoma) [µM]	TGI (UACC-62 melanoma) [µM]	GI50 (K-562 leukemia) [µM]
CN1CCN(Cc2ccc(C(=O)Nc3cncc(C#Cc4cnc(N)c5ccccc45)c3)cc2C(F)(F)F)CC1	1.78	3.49	2.19	4.74	2.42	11.3	2.05	5.02	1.15	4.22	14.8	1.76	3.39	1.93	4.22	1.86	3.46	5.22	17.5	
C=C1C(O)C2CCC(C)(C)C(=O)C2=C(CC(C)C)C12CC2 (stereo unspecified)	84.9	> 100	16.6	65.8	15	70.3	76.6	> 100	> 100	80.8	> 100	32.8	> 100	45.4	> 100	36.6	> 100	90.8	> 100	31.9
Cc1ccc2c(C(C[N+](=O)[O-])c3cccs3)c(-c3ccccc3)[nH]c2c1 (stereo unspecified)	3.7	16.9	3.61	8.01	4.03	9.24	1.3	6.54	> 33.3	1.28	5.57	1.38	6.14	0.984	3.68	1.15	4.54	1.4	5.58	1.16
COC(=O)C(=O)CC(=O)CCn1ncc(Cl)c(Cl)c1=O	18.3	35		13.1		28.2		15	9.54		26.7		32.3	18.6	44.1		23		25.8	
C=C1C(=O)O[C@H]2[C@H]1CC/C(CNC(=O)c1c[nH]c3ccc(F)cc13)=C\CC[C@@]1(C)O[C@@H]21	1.09	2.35	1.84	3.44	1.54	4.17	1.19	2.91	6.17	1.04	2.33	3.43	14.8	4.13	19.3	3.71	17	1.27	3.03	0.856
NC(N)=N/N=C(/c1ccccc1)c1ccc(F)cc1	0.33	4.15	0.416	2.09	0.984	31.4	0.3	2.63	27.7	0.209	0.506	0.342	10.8	0.766	4.19	0.243	2.25	0.421	15.5	0.38
Oc1ccccc1/C=N/Nc1ccc2ccccc2n1	6.53	> 100	6.59	> 100	4.47	42.5	9.46	> 100	> 100	3.65	> 100	3.38	20.3	1.95	> 100	4.44	> 100	3.17	> 100	3.18
O=C(c1ccc2ccccc2c1)c1c(C(F)(F)F)n([O-])c2cc(Cl)c(Cl)cc2[n+]1=O	1.57	2.9	1.48	2.8	1.55	3.18	1.49	2.81	3.12	1.66	3.04	2.02	4.15	1.8	3.95	1.66	3.06	1.61	2.96	1.56
CN1CCN(CC#Cc2cccc(C(=O)c3cnn(-c4ccc(F)cc4)c3N)c2)CC1	> 25	> 25	> 25	> 25	15.2	> 25	> 19.3	> 25	> 25	> 25	> 25	> 25	> 25	> 25	> 25	> 25	> 25	> 25	> 25	> 25
COc1ccc(C(=S)N2CCN(c3cccc(Cl)c3)CC2)cc1	> 100	> 100	> 100	> 100	17.2	> 100	> 100	> 100	> 100	> 100	> 100	> 100	> 100	97	> 100	95.9	> 100	78.2	> 100	72.8
